# Test results: patent US5817652A, “Hypolipidaemic condensed 1,4-thiazepines” (Glaxo Wellcome Inc., priority 1993, dated 1998)
# Counter-ions that a name gives are not always drawn.
# Tested on: rat distal ileal brush border membrane vesicles
# Test: In vitro inhibition of bile acid uptake (sodium-dependent 3H taurocholate uptake)
# Assay type: biochemical
# Details: active (sodium-dependent) 3H taurocholate uptake, 30 seconds at 24° C., pH 7.4
# Description: In vitro inhibition of bile acid uptake
# Freshly prepared rat distal ileal brush border membrane vesicles (about […] vesicle protein) were incubated for 30 seconds at 24° C. in an incubation mixture comprising […] ^3 H taurocholate, 100 mM NaCl (or KCl) and 80 mM mannitol in 20 mM Herpes Tris pH 7.4. Each test compound was dissolved in ethanol (or water) and then diluted with incubation mixture to an ethanol concentration of not more than 1% v/v. The incubation was terminated by rapid dilution and filtration and the filter washed with an ice-cold isotonic sodium-free buffer.
# The uptake of ^3 H taurocholate was measured by the radioactivity remaining on the filter and converted to pmoles/mg vesicle protein. The active, ie sodium-dependent, uptake was obtained by subtracting the passive uptake measured in 100 mM KCl from the total uptake measured in 100 mM NaCl. The active uptake for each test compound was compared with a control active uptake and the results expressed as % inhibition of bile acid uptake.
Structure (SMILES),% inhibition of bile acid uptake (0.3 μM compound) [%],% inhibition of bile acid uptake (1 μM compound) [%],% inhibition of bile acid uptake (3 μM compound) [%],% inhibition of bile acid uptake (10 μM compound) [%]
"CCC(=O)CC1(CC)CS(=O)(=O)c2ccccc2C(c2ccccc2)N1 (mixture of isomers) [Example 4, (±)-trans-1-(3-ethyl-2,3,4,5-tetrahydro-5-phenyl-1,4-benzothiazepin-3-yl)-2-butanone S,S-dioxide]",28,54,77,90
"CCC(=O)CC1(CC)CS(=O)(=O)c2cc(OC)ccc2C(c2ccccc2)N1 (mixture of isomers) [Example 5, (±)-trans-1-(3-ethyl-2,3,4,5-tetrahydro-8-methoxy-5-phenyl-1,4-benzothiazepin-3-yl)-2-butanone S,S-dioxide hydrochloride 1,1 hydrate]",60,83,94,98
"COc1ccc2c(c1)S(=O)(=O)CC1(CCCCC1)NC2c1ccccc1 (racemic) [Example 11, (±)-2,3,4,5-tetrahydro-8-methoxy-5-phenylspiro(1,4-benzothiazepine-3,1-cyclohexane) 1,1-dioxide]",15,33,36,64
"CCC1(/C=C/C(C)=O)CS(=O)(=O)c2ccccc2C(c2ccccc2)N1 (mixture of isomers) [Example 10, (±)-trans-(E)-4-(3-ethyl-2,3,4,5-tetrahydro-5-phenyl-1,4-benzothiazepin-3-yl)-3-buten-2-one 1,1-dioxide]",–,–,–,69
"O=S1(=O)CC2(CCCCC2)NC(c2ccccc2)c2ccccc21 (racemic) [Example 20, (±)-2,3,4,5-Tetrahydro-5-phenylspiro(1,4-benzothiazepine-3,1'-cyclohexane) 1,1-dioxide]",–,–,–,27
"CCOCCC1(CC)CS(=O)(=O)c2ccccc2C(c2ccccc2)N1 (racemic) [Example 7, (±)-trans-3-(ethoxyethyl)-3-ethyl-2,3,4,5-tetrahydro-5-phenyl-1,4-benzothiazepine 1,1-dioxide hydrochloride hemihydrate]",–,–,–,53
"CCC(=O)CC1(CC)CS(=O)(=O)c2ccc(OC)cc2C(c2ccccc2)N1 (mixture of isomers) [Example 51, (±)-Trans-1-(3-Ethyl-2,3,4,5-tetrahydro-7-methoxy-5-phenyl-1,4-benzothiazepin-3-yl)-2-butanone S,S-dioxide hydrochloride]",66,91,100,100
